Columns and labels:
PKM2 enzyme = PKM2 enzyme (Homo sapiens, UniProt P14618); experiment: PKM2 enzyme activity assay (KINASE GLO Plus); type: biochemical
Protocol: 5. PKM2 Enzyme Activity Assay
PKM2 biochemical assay Compounds were pre-incubated with 2 nmol/L PKM2 enzyme in reaction buffer (50 mmol/L Tris-HCl, pH 8.0, 200 mmol/L KCl, 30 mmol/L MgCl2, 2 mmol/L dithiothreitol (DTT), 5% DMSO) for 30 minutes at room temperature. ADP and PEP were then added to final concentrations of […] and 15 mmol/L, respectively. After 30 minutes, ATP formation was measured by KINASE GLO® Plus from Promega, and Concentration at half-maximal activation (AC50) values were determined using Prism GraphPad Software.
PKM2 enzyme activity assay over the concentration of formula I was performed in KINASE GLO® Plus assay. The controls were conducted in the presence of 5% Dimethyl sulfoxide (DMSO) and normalized to 100%±SD. […] (n=3, **p<0.005, ***p<0.001). […] The maximum PKM2 enzyme activity was more than 200% compared to that in controls.

A549 cells = experiment: Apoptosis assay, Annexin V/PI flow cytometry, A549; type: cell-based; conditions: 24, 48 and 72 hours, vs control group
Protocol: (§1) A549 and H1975 cells (1×10^5 cells/well) were seeded in a well plate with 6 wells for 24 hours, and treated with the indicated concentrations of formula I for an additional 24 hours, 48 hours and 72 hours at 37° C. After indicated hours, the cells were washed by ice-cold 1×PBS once and harvested by trypsination. Then cells were centrifuged, collected, and resuspended in ice-cold 1×PBS. After removing the supernatants, cell pellets were re-suspended in 100 μL 1×Annexin-binding buffer. The cells were then double-stained with Annexin-V FITC and PI (100 μg/mL) of 2 μL respectively for 15 min at room temperature in dark. After that, 300 μL 1× Annexin-binding buffer was added. Apoptotic cells were quantitatively counted by a BD Aria III Flow Cytometer (BD Biosciences, San Jose, Calif., USA)

H1975 cells = experiment: Apoptosis assay, Annexin V/PI flow cytometry, H1975; type: cell-based; conditions: 24, 48 and 72 hours, vs control group
Protocol: as §1

[1] = system: PKM2 phosphorylation / AKT pathway in A549 cells; experiment: Western blot analysis, A549; type: cell-based
Protocol: (§2) After incubation A549 and H1975 cells with formula I for 24 hours and 72 hours, A549 and H1975 cells were harvested and washed with cold 1×PBS. Then, cells were lysed with ice-cold RIPA lysis buffer with protease, and phosphatase inhibitors were added to extract the cell protein extraction. The supernatants were collected by centrifugation at 12,000 g, for 5 minutes. The quantitation of total protein extraction was measured by Bio-Rad DCTM protein assay kit (Bio-Rad, Philadelphia, Pa., USA). Then 30 μg of protein were loaded and electrophoretically separated on 8% SDS-PAGE gel and then transferred to Nitrocellulose (NC) membrane. Membranes were blocked with 5% non-fat milk and […] containing 0.1% Tween-20 (TBST) for 1 hour at room temperature. After 1 hour, membranes were incubated with primary anti-bodies (1:1000 dilution) against β-actin, total/phosphor-PKM2, total/phosphor-AKT, and BCL-2 at 4° C. with gently shaking overnight. Membranes were washed with TBST for 3 times (5 minutes/time), and incubated with secondary fluorescent antibody (1:10000 dilutions) for 1 hour at room temperature. Rewashing with TBST for 3 times (15 minutes/time), the stripes were visualized by LI-COR Odessy scanner (Belfast, Me., USA).

[2] = system: PKM2 phosphorylation / AKT pathway in H1975 cells; experiment: Western blot analysis, H1975; type: cell-based
Protocol: as §2

Sequence of PKM2 enzyme (P14618 whole entry): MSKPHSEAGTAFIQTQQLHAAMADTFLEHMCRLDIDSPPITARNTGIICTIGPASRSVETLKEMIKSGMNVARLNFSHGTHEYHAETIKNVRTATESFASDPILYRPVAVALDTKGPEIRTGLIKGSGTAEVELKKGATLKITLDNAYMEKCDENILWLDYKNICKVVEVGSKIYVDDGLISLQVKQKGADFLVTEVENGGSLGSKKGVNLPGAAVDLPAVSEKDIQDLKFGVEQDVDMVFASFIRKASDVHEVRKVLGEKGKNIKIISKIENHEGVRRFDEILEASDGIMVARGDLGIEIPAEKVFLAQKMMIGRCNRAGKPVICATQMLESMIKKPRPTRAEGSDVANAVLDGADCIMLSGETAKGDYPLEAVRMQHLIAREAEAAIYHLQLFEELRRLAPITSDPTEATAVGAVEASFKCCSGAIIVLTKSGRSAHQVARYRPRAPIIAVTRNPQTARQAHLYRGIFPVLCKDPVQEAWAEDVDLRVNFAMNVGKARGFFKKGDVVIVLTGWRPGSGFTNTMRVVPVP

In the case of O=S(=O)(Nc1ccccc1)c1ccc(-c2ccc(S(=O)(=O)Nc3ccccc3)cc2)cc1 [formula I], the AC50 (PKM2 enzyme; 2 nmol/L PKM2, KINASE GLO Plus, n=3, read-out: AC50 (concentration at half-maximal activation)) is reported as 5.5 ± 1 µM, the “maximum PKM2 enzyme activity compared to controls” value (PKM2 enzyme; controls with 5% DMSO normalized to 100%) is reported as “more than 200%” and the apoptosis level (A549 cells) is reported as “induced significant level of apoptosis in a concentration-dependent manner”. For the same compound, the apoptosis level (H1975 cells) was “induced significant level of apoptosis in a concentration-dependent manner”, the AKT pathway [1] was “selectively inhibited AKT pathway” and the PKM2 phosphorylation ([1]; β-actin loading control) was “activated phosphorylation of both PKM2 in a dose-dependent manner”. The AKT pathway [2] was “selectively inhibited AKT pathway” and the PKM2 phosphorylation ([2]; β-actin loading control) was “activated phosphorylation of both PKM2 in a dose-dependent manner”.

Source: US9744145B1, “Methods for treating lung cancer” (Macau University of Science and Technology, priority 2017, dated 2017)
